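Method: 48-hour compound exposure of cells in 96-well plates, five concentrations, linear interpolation of endpoints. GI50 = concentration required for 50% inhibition of growth.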 The source made the active and inactive calls. Rule as the data show it: active = GI50 up to about 1.1 µM and inactive = higher.
How the values were obtained:
Experiment in all cases: NCI anticancer screen, dose series, 48 h
[1] = system: A549
[2] = system: CAKI-1
[3] = system: HCC 2998
[4] = system: HL-60
[5] = system: HOP-62
[6] = system: HOP-92
[7] = system: HT-29
[8] = system: M14
[9] = system: MDA-MB-231
[10] = system: MDA-MB-435
[11] = system: MDA-N
[12] = system: NCI-H460
[13] = system: NCI-H522
[14] = system: OVCAR-3
[15] = system: SF-268
[16] = system: SF-539
[17] = system: SK-MEL-2
[18] = system: SK-MEL-5
[19] = system: SNB-75
[20] = system: UACC-257

In the case of `C[C@]12CCC(=O)C=C1CC[C@@H]1[C@@H]2CC[C@]2(C)C(=O)/C(=C/c3ccncc3)C[C@@H]12`, the GI50 [1] is reported as 16.4 µM (inactive), the GI50 [2] is reported as 15.9 µM (inactive) and the GI50 [3] is reported as 16.7 µM (inactive). The GI50 [4] was 8.51 µM (inactive), the GI50 [5] was 14.6 µM (inactive) and the GI50 [6] was 19.1 µM (inactive). For the same compound, the GI50 [7] was 10.2 µM (inactive), the GI50 [8] was 14.6 µM (inactive) and the GI50 [9] was 15.2 µM (inactive). For the same compound, the GI50 [10] was 17.1 µM (inactive), the GI50 [11] was 20.1 µM (inactive) and the GI50 [12] was 12.3 µM (inactive). For the same compound, the GI50 [13] was 15.3 µM (inactive), the GI50 [14] was 13 µM (inactive) and the GI50 [15] was 18.8 µM (inactive). The GI50 [16] was 7.4 µM (inactive), the GI50 [17] was 14.5 µM (inactive) and the GI50 [18] was 8.97 µM (inactive). For the same compound, the GI50 [19] was 19.6 µM (inactive) and the GI50 [20] was 13.4 µM (inactive).

With `O=C(/C=N/O)Nc1cc(Cl)c(Cl)cc1Cl` the GI50 [1] was 34.5 µM (inactive), the GI50 [2] was 24.3 µM (inactive) and the GI50 [3] was 26.6 µM (inactive). For the same compound, the GI50 [4] was 18.7 µM (inactive), the GI50 [5] was 31.6 µM (inactive) and the GI50 [6] was 26.9 µM (inactive). For the same compound, the GI50 [7] was 36.8 µM (inactive), the GI50 [8] was 34.4 µM (inactive) and the GI50 [9] was 25.8 µM (inactive). For the same compound, the GI50 [10] was 23 µM (inactive), the GI50 [11] was 27.7 µM (inactive) and the GI50 [12] was 28.4 µM (inactive). The GI50 [13] was 24.9 µM (inactive), the GI50 [14] was 24.4 µM (inactive) and the GI50 [15] was 33.3 µM (inactive). For the same compound, the GI50 [16] was 31.6 µM (inactive), the GI50 [17] was 24.9 µM (inactive) and the GI50 [18] was 17.7 µM (inactive). The GI50 [19] was 20.7 µM (inactive) and the GI50 [20] was 26.6 µM (inactive).

With `CCCCCCSCC/C(C)=N\OC` the GI50 [1] was > 100 µM (inactive), the GI50 [2] was > 100 µM (inactive) and the GI50 [3] was > 100 µM (inactive). For the same compound, the GI50 [4] was 45.3 µM (inactive), the GI50 [5] was > 100 µM (inactive) and the GI50 [6] was > 100 µM (inactive). The GI50 [7] was > 100 µM (inactive), the GI50 [8] was > 100 µM (inactive) and the GI50 [9] was > 100 µM (inactive). For the same compound, the GI50 [10] was > 100 µM (inactive), the GI50 [11] was > 100 µM (inactive) and the GI50 [12] was > 100 µM (inactive). For the same compound, the GI50 [13] was > 100 µM (inactive), the GI50 [14] was > 100 µM (inactive) and the GI50 [15] was > 100 µM (inactive). For the same compound, the GI50 [16] was > 100 µM (inactive), the GI50 [17] was > 100 µM (inactive) and the GI50 [18] was > 100 µM (inactive). For the same compound, the GI50 [19] was > 100 µM (inactive) and the GI50 [20] was > 100 µM (inactive).

`O=C1c2cccc3cccc(c23)C(=O)N1CCCNCCCCNCCCN1C(=O)c2cccc3cccc(c23)C1=O` was tested, and the GI50 [1] was 0.0495 µM (active), the GI50 [2] was 0.857 µM (active) and the GI50 [3] was 0.0755 µM (active). The GI50 [4] was 0.32 µM (active), the GI50 [5] was 0.205 µM (active) and the GI50 [6] was 0.18 µM (active). The GI50 [7] was 0.0315 µM (active), the GI50 [8] was 0.604 µM (active) and the GI50 [9] was 0.137 µM (active). For the same compound, the GI50 [10] was 0.159 µM (active), the GI50 [11] was 0.256 µM (active) and the GI50 [12] was 0.0194 µM (active). For the same compound, the GI50 [13] was < 0.0112 µM (active), the GI50 [14] was 0.2 µM (active) and the GI50 [15] was 0.025 µM (active). The GI50 [16] was 0.0843 µM (active), the GI50 [17] was 0.521 µM (active) and the GI50 [18] was 0.644 µM (active). The GI50 [19] was 0.202 µM (active) and the GI50 [20] was 0.61 µM (active).
